From ChEMBL document CHEMBL5338805, “Discovery of the First Subnanomolar PPARα/δ Dual Agonist for the Treatment of Cholestatic Liver Diseases” (J Med Chem, 2023)
Calls of active or inactive are those of the source. The rule behind the calls is not given here.

What was measured:
[1] = biological target: Retinoic acid receptor alpha (Homo sapiens) (UniProt P10276); test: Agonist activity at RARalpha (unknown origin) transfected in african green monkey COS7 cells assessed transactivation incubated at 1 uM for 16 hrs by luciferase assay; assay type: cell-based
Sequence of Retinoic acid receptor alpha (Homo sapiens) (P10276 whole entry): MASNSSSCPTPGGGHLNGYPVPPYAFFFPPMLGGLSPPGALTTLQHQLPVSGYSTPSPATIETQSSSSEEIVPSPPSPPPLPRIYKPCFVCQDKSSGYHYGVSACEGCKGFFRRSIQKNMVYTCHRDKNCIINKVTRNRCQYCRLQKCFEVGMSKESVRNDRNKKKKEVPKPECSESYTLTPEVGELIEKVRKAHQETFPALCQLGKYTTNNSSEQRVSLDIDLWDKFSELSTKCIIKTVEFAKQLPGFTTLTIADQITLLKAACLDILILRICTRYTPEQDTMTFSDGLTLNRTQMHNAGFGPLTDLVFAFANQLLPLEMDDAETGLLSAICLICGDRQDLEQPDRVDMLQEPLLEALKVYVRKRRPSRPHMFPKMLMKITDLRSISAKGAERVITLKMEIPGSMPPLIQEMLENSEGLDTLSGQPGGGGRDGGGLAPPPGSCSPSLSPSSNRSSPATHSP

[2] = biological target: Retinoic acid receptor RXR-alpha (Homo sapiens) (UniProt P19793); test: Agonist activity at RXRalpha (unknown origin) transfected in african green monkey COS7 cells assessed transactivation incubated at 1 uM for 16 hrs by luciferase assay; assay type: cell-based
Sequence of Retinoic acid receptor RXR-alpha (Homo sapiens) (P19793 whole entry): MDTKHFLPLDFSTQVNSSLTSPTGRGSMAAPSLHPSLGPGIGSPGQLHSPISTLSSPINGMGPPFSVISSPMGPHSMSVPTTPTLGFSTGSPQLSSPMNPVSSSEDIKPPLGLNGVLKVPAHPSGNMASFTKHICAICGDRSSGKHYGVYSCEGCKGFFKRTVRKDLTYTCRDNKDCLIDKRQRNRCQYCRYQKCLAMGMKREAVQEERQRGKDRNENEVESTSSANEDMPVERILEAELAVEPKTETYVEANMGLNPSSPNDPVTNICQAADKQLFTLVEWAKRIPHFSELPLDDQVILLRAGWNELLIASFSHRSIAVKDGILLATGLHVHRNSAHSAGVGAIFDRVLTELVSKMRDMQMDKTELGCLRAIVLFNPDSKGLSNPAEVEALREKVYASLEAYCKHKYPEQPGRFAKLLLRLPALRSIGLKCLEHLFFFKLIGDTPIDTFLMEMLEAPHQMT

[3] = biological target: Retinoic acid receptor RXR-beta (Homo sapiens) (UniProt P28702); test: Agonist activity at RXRbeta (unknown origin) transfected in african green monkey COS7 cells assessed transactivation incubated at 1 uM for 16 hrs by luciferase assay; assay type: cell-based
Sequence of Retinoic acid receptor RXR-beta (Homo sapiens) (P28702 whole entry): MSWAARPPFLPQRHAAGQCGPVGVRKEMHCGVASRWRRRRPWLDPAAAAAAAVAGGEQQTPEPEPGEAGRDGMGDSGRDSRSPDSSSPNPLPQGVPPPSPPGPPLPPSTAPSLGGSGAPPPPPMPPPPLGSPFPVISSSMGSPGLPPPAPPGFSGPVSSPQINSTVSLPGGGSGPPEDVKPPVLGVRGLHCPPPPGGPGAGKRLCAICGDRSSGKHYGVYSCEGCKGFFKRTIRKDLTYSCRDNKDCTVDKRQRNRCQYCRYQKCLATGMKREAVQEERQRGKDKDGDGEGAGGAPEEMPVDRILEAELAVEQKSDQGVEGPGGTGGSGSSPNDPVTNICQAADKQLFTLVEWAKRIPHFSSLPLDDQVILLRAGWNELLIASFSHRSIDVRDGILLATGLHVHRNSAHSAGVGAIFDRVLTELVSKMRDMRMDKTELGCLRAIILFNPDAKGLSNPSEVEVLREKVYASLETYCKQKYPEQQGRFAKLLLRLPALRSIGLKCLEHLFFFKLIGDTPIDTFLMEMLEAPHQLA

[4] = biological target: Retinoic acid receptor RXR-gamma (Homo sapiens) (UniProt P48443); test: Agonist activity at RXRgamma (unknown origin) transfected in african green monkey COS7 cells assessed transactivation incubated at 1 uM for 16 hrs by luciferase assay; assay type: cell-based
Sequence of Retinoic acid receptor RXR-gamma (Homo sapiens) (P48443 whole entry): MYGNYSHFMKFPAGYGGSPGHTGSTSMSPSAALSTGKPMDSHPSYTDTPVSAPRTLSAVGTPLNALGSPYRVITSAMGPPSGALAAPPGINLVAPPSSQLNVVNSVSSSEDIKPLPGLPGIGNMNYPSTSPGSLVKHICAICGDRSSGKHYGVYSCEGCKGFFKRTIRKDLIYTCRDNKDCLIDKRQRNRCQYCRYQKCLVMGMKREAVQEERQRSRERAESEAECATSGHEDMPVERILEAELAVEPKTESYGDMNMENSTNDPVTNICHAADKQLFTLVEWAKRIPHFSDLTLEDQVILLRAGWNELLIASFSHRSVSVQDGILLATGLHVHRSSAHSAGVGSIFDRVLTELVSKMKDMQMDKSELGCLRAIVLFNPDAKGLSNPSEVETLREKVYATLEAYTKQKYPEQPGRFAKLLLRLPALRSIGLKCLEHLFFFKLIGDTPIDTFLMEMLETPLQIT

[5] = biological target: Oxysterols receptor LXR-beta (Homo sapiens) (UniProt P55055); test: Agonist activity at LXRbeta (unknown origin) transfected in african green monkey COS7 cells assessed transactivation incubated at 1 uM for 16 hrs by luciferase assay; assay type: cell-based
Sequence of Oxysterols receptor LXR-beta (Homo sapiens) (P55055 whole entry): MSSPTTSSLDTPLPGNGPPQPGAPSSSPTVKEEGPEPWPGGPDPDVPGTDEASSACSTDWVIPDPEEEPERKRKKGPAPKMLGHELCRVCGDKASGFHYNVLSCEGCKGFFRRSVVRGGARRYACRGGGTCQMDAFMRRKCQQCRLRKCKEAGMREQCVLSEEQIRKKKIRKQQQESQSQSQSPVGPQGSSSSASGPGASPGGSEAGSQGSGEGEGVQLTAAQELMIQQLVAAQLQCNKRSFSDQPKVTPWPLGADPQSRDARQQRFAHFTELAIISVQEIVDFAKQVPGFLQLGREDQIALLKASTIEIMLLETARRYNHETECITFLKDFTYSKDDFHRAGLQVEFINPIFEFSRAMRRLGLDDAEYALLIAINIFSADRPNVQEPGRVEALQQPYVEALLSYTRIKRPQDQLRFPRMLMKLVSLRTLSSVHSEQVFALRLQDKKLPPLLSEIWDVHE

[6] = biological target: Thyroid hormone receptor beta (Homo sapiens) (UniProt P10828); test: Agonist activity at THRbeta (unknown origin) transfected in african green monkey COS7 cells assessed transactivation incubated at 1 uM for 16 hrs by luciferase assay; assay type: cell-based
Sequence of Thyroid hormone receptor beta (Homo sapiens) (P10828 whole entry, the tested form may be a part): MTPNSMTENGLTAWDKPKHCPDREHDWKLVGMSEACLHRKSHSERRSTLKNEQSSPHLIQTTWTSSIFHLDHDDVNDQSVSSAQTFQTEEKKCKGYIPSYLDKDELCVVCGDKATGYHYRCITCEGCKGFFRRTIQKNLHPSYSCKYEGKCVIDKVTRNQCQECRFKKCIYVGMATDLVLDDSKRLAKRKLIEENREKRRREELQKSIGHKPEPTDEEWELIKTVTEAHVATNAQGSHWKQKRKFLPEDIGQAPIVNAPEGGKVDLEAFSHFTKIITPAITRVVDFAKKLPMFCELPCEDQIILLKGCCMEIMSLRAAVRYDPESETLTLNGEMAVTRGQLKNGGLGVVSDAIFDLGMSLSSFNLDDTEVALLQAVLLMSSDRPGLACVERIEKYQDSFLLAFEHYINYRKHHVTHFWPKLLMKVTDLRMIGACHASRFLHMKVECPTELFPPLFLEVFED

[7] = biological target: Peroxisome proliferator-activated receptor alpha (Homo sapiens) (UniProt Q07869); test: Binding affinity to PPARalpha LBD (unknown origin) assessed as thermal stability by measuring change in melting temperature by thermal shift assay; conditions: filed as agonist, dose 0.625-10 µM
Sequence of Peroxisome proliferator-activated receptor alpha (Homo sapiens) (Q07869 whole entry, the tested form may be a part): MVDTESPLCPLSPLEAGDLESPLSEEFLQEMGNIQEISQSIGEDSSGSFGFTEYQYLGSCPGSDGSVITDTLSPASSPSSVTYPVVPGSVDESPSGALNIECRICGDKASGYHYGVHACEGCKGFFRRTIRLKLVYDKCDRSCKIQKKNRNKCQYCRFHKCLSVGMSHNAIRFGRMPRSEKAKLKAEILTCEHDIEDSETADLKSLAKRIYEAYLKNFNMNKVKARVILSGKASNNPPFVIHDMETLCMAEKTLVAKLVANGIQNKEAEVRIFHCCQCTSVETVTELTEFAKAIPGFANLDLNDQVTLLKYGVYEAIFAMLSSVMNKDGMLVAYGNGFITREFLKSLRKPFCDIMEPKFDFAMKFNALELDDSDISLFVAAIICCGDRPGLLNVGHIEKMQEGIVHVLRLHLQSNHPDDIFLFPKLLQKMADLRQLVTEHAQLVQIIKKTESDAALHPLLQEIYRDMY

[8] = Stability in human liver microsome assessed as half life at 1 uM by LC/MS-8050 analysis; assay type: ADME; conditions: liver microsomes
[9] = AUC in fasted Sprague-Dawley rat at 10 mg/kg, po measured at 0.083 to 24 hrs by LC-MS/MS analysis; assay type: ADME, organism-based; design: time lower 0.083 hrs, dose 10 mg/kg, time upper 24 hrs, route po; conditions: in vivo
[10] = system: COS-7; test: Cytotoxicity against african green monkey COS7 cells incubated upto 100 uM for 24 hrs by CCK8 assay; assay type: toxicity, cell-based; conditions: chlorocebus aethiops, cos-7, 24 h
[11] = system: HEK293; test: Cytotoxicity against HEK293 cells incubated upto 100 uM for 24 hrs by CCK8 assay; assay type: toxicity, cell-based; conditions: human, hek293, 24 h
[12] = Acute toxicity in mouse assessed as lethal dose administered orally for 14 days; conditions: in vivo, po, 336 h, time 14 day
[13] = Acute toxicity in mouse assessed as moribundity administered at 2000 mg/kg, po for 14 days; assay type: organism-based; conditions: in vivo, 336 h, time 14 day
[14] = In vivo upregulation of PPAR alpha in C57BL/6JNifdc mouse liver administered orally for 3 days measured after 6 hrs of last administration by real-time PCR analysis; assay type: ADME, organism-based; conditions: po, 78 h, dose 0.03-0.1 mg/kg, time 3.25 day
[15] = Down-streaming of Cyp7a1 gene expression in C57BL/6JNifdc mouse liver assessed as hepatic resorption of bile acid administered at 0.03 to 0.1 mg/kg, po for 3 days measured after 6 hrs of last administration by real-time PCR analysis; assay type: ADME, organism-based; conditions: in vivo, 78 h, dose 0.03-0.1 mg/kg, time 3.25 day
[16] = Down-streaming of Oatp1 gene expression in C57BL/6JNifdc mouse liver assessed as hepatic resorption of bile acid administered at 0.03 to 0.1 mg/kg, po for 3 days measured after 6 hrs of last administration by real-time PCR analysis; assay type: ADME, organism-based; conditions: in vivo, 78 h, dose 0.03-0.1 mg/kg, time 3.25 day
[17] = Upregulation of Mrp3 gene expression in C57BL/6JNifdc mouse liver assessed as increased efflux of bile acid administered at 0.03 to 0.1 mg/kg, po for 3 days measured after 6 hrs of last administration by real-time PCR analysis; assay type: ADME, organism-based; conditions: in vivo, 78 h, dose 0.03-0.1 mg/kg, time 3.25 day
[18] = Anti-cholestatic activity in ANIT-induced C57BL/6Nifdc mouse model assessed as decrease in serum alanine aminotransferase at 0.03 to 0.1 mg/kg, po upto 42 hrs measured after 48 hrs; assay type: ADME, organism-based; conditions: in vivo, 90 h, dose 0.03-0.1 mg/kg
[19] = Anti-cholestatic activity in ANIT-induced C57BL/6Nifdc mouse model assessed as decrease in liver TBA at 0.03 to 0.1 mg/kg, po upto 42 hrs measured after 48 hrs; assay type: ADME, organism-based; conditions: in vivo, 90 h, dose 0.03-0.1 mg/kg
[20] = Anti-cholestatic activity in ANIT-induced C57BL/6Nifdc mouse model assessed as decrease in liver CA at 0.03 to 0.1 mg/kg, po upto 42 hrs measured after 48 hrs; assay type: ADME, organism-based; conditions: in vivo, 90 h, dose 0.03-0.1 mg/kg
[21] = Anti-cholestatic activity in ANIT-induced C57BL/6Nifdc mouse model assessed as decrease in liver GCA at 0.03 to 0.1 mg/kg, po upto 42 hrs measured after 48 hrs; assay type: ADME, organism-based; conditions: in vivo, 90 h, dose 0.03-0.1 mg/kg
[22] = Anti-cholestatic activity in ANIT-induced C57BL/6Nifdc mouse model assessed as decrease in liver beta-MCA at 0.03 to 0.1 mg/kg, po upto 42 hrs measured after 48 hrs; assay type: ADME, organism-based; conditions: in vivo, 90 h, dose 0.03-0.1 mg/kg
[23] = Anti-cholestatic activity in ANIT-induced C57BL/6Nifdc mouse model assessed as decrease in phosphorylated p65 level at 0.03 to 0.1 mg/kg, po upto 42 hrs measured after 48 hrs by Western blot analysis; assay type: ADME, organism-based; conditions: in vivo, 90 h, dose 0.03-0.1 mg/kg
[24] = Anti-cholestatic activity in ANIT-induced C57BL/6Nifdc mouse model assessed as decrease in liver DHLCA at 0.03 to 0.1 mg/kg, po upto 42 hrs measured after 48 hrs; assay type: ADME, organism-based; conditions: in vivo, 90 h, dose 0.03-0.1 mg/kg
[25] = Anti-cholestatic activity in ANIT-induced C57BL/6Nifdc mouse model assessed as decrease in liver UCA at 0.03 to 0.1 mg/kg, po upto 42 hrs measured after 48 hrs; assay type: ADME, organism-based; conditions: in vivo, 90 h, dose 0.03-0.1 mg/kg
[26] = Anti-cholestatic activity in ANIT-induced C57BL/6Nifdc mouse model assessed as decrease in liver DHCA at 0.03 to 0.1 mg/kg, po upto 42 hrs measured after 48 hrs; assay type: ADME, organism-based; conditions: in vivo, 90 h, dose 0.03-0.1 mg/kg
[27] = Anti-cholestatic activity in ANIT-induced C57BL/6Nifdc mouse model assessed as decrease in liver TUDCA at 0.03 to 0.1 mg/kg, po upto 42 hrs measured after 48 hrs; assay type: ADME, organism-based; conditions: in vivo, 90 h, dose 0.03-0.1 mg/kg
[28] = Anti-fibrosis activity in Ccl4-induced C57BL/6Nifdc mouse model assessed as reversal of increased alpha-SMA administered orally for 3 weeks by Western blot analysis; assay type: ADME; conditions: in vivo, po, 504 h, dose 0.03-0.1 mg/kg
[29] = Anti-fibrosis activity in Ccl4-induced C57BL/6Nifdc mouse model assessed as decrease in serum triglyceride level administered at 0.03 to 0.1 mg/kg,po for 3 weeks; assay type: ADME, organism-based; conditions: in vivo, 504 h, dose 0.03-0.1 mg/kg
[30] = Anti-fibrosis activity in Ccl4-induced C57BL/6Nifdc mouse model assessed as reversal of increased Col1a1 administered orally for 3 weeks by Western blot analysis; assay type: ADME; conditions: in vivo, po, 504 h, dose 0.03-0.1 mg/kg
[31] = In vivo upregulation of PPAR delta in C57BL/6JNifdc mouse liver administered orally for 3 days measured after 6 hrs of last administration by real-time PCR analysis; assay type: ADME, organism-based; conditions: po, 78 h, dose 0.03-0.1 mg/kg
[32] = Down-streaming of Cyp7a1 gene expression in C57BL/6JNifdc mouse liver assessed as hepatic resorption of bile acid administered at 0.03 mg/kg, po for 3 days measured after 6 hrs of last administration by real-time PCR analysis; assay type: ADME, organism-based; conditions: in vivo, 78 h

SMILES: Cc1cc(CN2C(=O)CN(c3ccc(C(F)(F)F)cc3)C2=O)cc(C)c1OC(C)(C)C(=O)O
- Activity [1]: inactive
- Activity [2]: inactive
- Activity [3]: inactive
- Activity [4]: inactive
- Activity [5]: inactive
- Activity [6]: inactive
- deltaTm [7]: Dose-Dependent Effect
- half-life at 1 µM [8]: > 2 h
- AUC [9]: 22300 ng·h/mL
- Activity [10]: Non-Toxic
- Activity [11]: Non-Toxic
- LD [12]: > 2000 mg/kg
- Activity [13]: Non-Toxic
- Activity [14]: Dose-Dependent Effect
- Activity [15]: Active
- Activity [16]: Active
- Activity [17]: Active
- Activity [18]: Active
- Activity [19]: Active
- Activity [20]: Active
- Activity [21]: Active
- Activity [22]: Active
- Activity [23]: Active
- Activity [24]: Active
- Activity [25]: Active
- Activity [26]: Active
- Activity [27]: Active
- Activity [28]: Dose-Dependent Effect
- Activity [29]: Active
- Activity [30]: Dose-Dependent Effect
- Activity [31]: Dose-Dependent Effect
- Activity [32]: Active
